Results on three compounds are retold here after publication PMC2825274 (PLoS ONE, 2010).

Converted amounts (≈) assume the structure as drawn. “And” between values parts separate entries of the source, which are not always exact repeats. Identical values can stand only once.

Format in all cases: cell-based, influenza A virus
For experiment [1], the system named is influenza A/California/10/09 (H1N1) (CA10), S31N amantadine-resistant.
The test system of experiment [2] is A/Mississippi/3/01 (H1N1) H274Y (MS H274Y) oseltamivir-resistant.
In experiment [3] the test system is A/New Caledonia/20/99 (H1N1) V27A (NC V27A).
The test system of experiment [4] is A/Wisconsin/67/05 (H3N2) S31N (WI S31N).
In experiment [5] the test system is A/Hawaii/21/07 (H1N1) H274Y (HI H274Y).

For `NC(=O)c1ncn([C@@H]2O[C@H](CO)[C@@H](O)[C@H]2O)n1` [Ribavirin], in experiment [1], the “Fold Reduction in EC50 Compared to (B)” value is given as 1.5 and the “Fold Reduction in EC50 Compared to (C)” value is given as 2.2. The EC50 in experiment [2] is given as 3.6 µg/mL (≈ 14.7 µM).

For the compound `NC12CC3CC(CC(C3)C1)C2` [Amantadine], in experiment [1], the “Fold Reduction in EC50 Compared to (A)” value is 1.8 and 2.0 and 3.2; the “Fold Reduction in EC50 Compared to (B)” value is given as 1.7; the “Fold Reduction in EC50 Compared to (C)” value came to 1.6; the “amantadine concentration with significant contribution to the synergy of the TCAD regimen” value is on record as ≥ 0.32 µg/mL. Moreover, in experiment [1], the “contribution to the total synergy of the TCAD regimen” value (from here on “contribution to the total synergy”) was 44%. In addition, in experiment [3], the “activity as a single agent” value was “no activity” and the “amantadine concentration at which the increase in synergy of the TCAD regimen was observed” value is 0.32 µg/mL. Further, in experiment [4], the “activity as a single agent” value is given as “no activity” and the “amantadine concentration at which the increase in synergy of the TCAD regimen was observed” value is on record as 1 µg/mL. This compound also came in with an EC50 in experiment [2] of 0.060 µg/mL (≈ 0.397 µM).

On to Oseltamivir carboxylate, for which, in experiment [1], the “Fold Reduction in EC50 Compared to (B)” value stood at 6.5 and the “Fold Reduction in EC50 Compared to (C)” value amounted to 6.5. Besides, in experiment [2], the 50% effective concentration (EC50) stood at 73 µg/mL, the “Fold Reduction in EC50 Compared to (A)” value is listed as 21, the “Fold Reduction in EC50 Compared to (B)” value is reported as >29 and the “Fold Reduction in EC50 Compared to (C)” value is reported as >29. Also, in experiment [2], the “antiviral activity as a single agent” value is reported as “no antiviral activity”, the “contribution to the total synergy” value is 76%, the “fold reduction in susceptibility” value was determined as 1480 fold and the “oseltamivir carboxylate concentration from which it contributed to the synergy of the TCAD regimen” value was ≥ 0.1 µg/mL. Further, in experiment [5], the “Fold Reduction in EC50 Compared to (B)” value is on record as 3.3, the “Fold Reduction in EC50 Compared to (C)” value is 4.2, the “antiviral activity as a single agent” value is “no antiviral activity” and the “contribution to the total synergy” value turned out to be 83%. Further, in experiment [5], the “fold reduction in susceptibility” value worked out at 300 fold and the “oseltamivir carboxylate concentration from which it contributed to the synergy of the TCAD regimen” value is given as ≥ 0.32 µg/mL.
